Assay results: patent US11590244B2, “Methods for renal function determination” (MediBeacon Inc., priority 2017, dated 2023)
Where two headings read alike, the source gives them in different places.

What was measured:
[1] = Stability testing, HPLC evaluation of stored samples; format: physicochemical; settings: 25° C. and 60% relative humidity
Procedure: Samples of MB-102 were prepared and stored at 25° C. and 60% relative humidity for 24 months. HPLC evaluation of each sample was performed at various time points to assess the stability of the samples.

[2] = Clinical pharmacokinetic study of MB-102 given intravenously: plasma and urine collection; format: in vivo, human; settings: for half-life: plasma
Procedure: In a clinical study, 60 human patients were administered MB-102 ((2R,2′R)-2,2′-((3,6-diaminopyrazine-2,5-dicarbonyl)bis(azanediyl))bis(3-hydroxypropanoic acid)) prepared in Example 12) intravenously. Blood and urine were collected in addition to the methods and techniques disclosed herein. Standard pharmacokinetic data was collected and comparison was made between the methods and techniques disclosed herein to Omnipaque® (iohexol), a known contrast agent used for GFR determination.
Shown in FIGS. 3A to 3D are data collected from the 60 human patients tested with MB-102. Plasma pharmacokinetic data was collected and analyzed using methods known in the art and compared to the data measured using the methods and techniques disclosed herein.
FIGS. 3A to 3D illustrate a two compartment pharmacokinetic model for the elimination of MB-102. The model is consistent for patients regardless of their GFR values. FIG. 3A is for patients having normal kidney function having a measured GFR (mGFR) of 120 mL/min. FIG. 3B is for patients having a mGFR of 81 mL/min. FIG. 3C is for patients having a mGFR of 28 mL/min. FIG. 3D is for patients having a mGFR of 25 mL/min. The first compartment in the two compartment model is the vascular to tissue equilibrium while the second compartment illustrates renal excretion only. On average, the time for equilibration is about one hour, and is subject dependent.
As part of the clinical 1 study for MB-102, urine was collected from patients for 12 hours to determine the amount recovered and degree of secondary metabolism. […] For patients having normal, stage 1 and stage 2 renal function, 12 hour collection time was sufficient for greater than 99% recovery of MB-102. In view of the pharmacokinetic data and the plasma half-life determination, less than complete collection is readily understood for patients having more serious renal function impairment.
Shown in FIG. 6 is the plasma concentration half-life of MB-102 for patients having either normal kidney function, stage 1 renal impairment, stage 2 renal impairment, stage 3 renal impairment, or stage 4 renal impairment.

[3] = patients having a mGFR value below 60, 12 hours

Nc1nc(C(=O)N[C@H](CO)C(=O)O)c(N)nc1C(=O)N[C@H](CO)C(=O)O [MB-102]
Purity (HPLC) ([1]; 0 months): >99%
Purity (HPLC) ([1]; 6 months): >99%
Purity (HPLC) ([1]; 12 months): 98.9%
Purity (HPLC) ([1]; 18 months): 98.3%
Purity (HPLC) ([1]; 24 months): 97.8%
time for equilibration (vascular to tissue equilibrium) ([2]; human patients, intravenous, on average, subject dependent): about one
half-life ([2]; human, intravenous, stage 2 and 3 groups (so in the source), read-out: average plasma half-life (converted)): 2.5 h
half-life ([2]; human, intravenous, stage 3 renal impairment, read-out: plasma half-life (converted)): 4 h
half-life ([2]; human, intravenous, stage 4 renal impairment, read-out: plasma half-life (converted)): 8 h
dose excreted ([2]; human, urine, intravenous, patients having normal, stage 1 and stage 2 renal function, 12 hour collection time, read-out: recovery from urine): > 99%
average plasma half-life ([2]; normal renal function group): two
degree of secondary metabolism (urine) [2, 3]: unmetabolized
recovery from urine [2, 3]: a lower percentage was recovered
recovered unmetabolized from urine ([2]; patients having an eGFR greater than 60, after 12 hours): greater than 99%
